Results as given in ChEMBL document CHEMBL1201862, “PubChem BioAssay data set” (2004).
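Exposure lasted 48 hours, with cells grown in 96-well plates and compounds tested at five concentrations. GI50: concentration for 50% inhibition of growth.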 The source made the active and inactive calls. No stated cut-off is given here; in the data, active = GI50 up to about 1.1 µM and inactive = higher.

Experiments:
Test in all cases: inhibition of tumour cell growth, NCI panel, 48 h
[1] = test system: SF-295
[2] = test system: SK-MEL-5
[3] = test system: A549
[4] = test system: NCI-H226
[5] = test system: HOP-92
[6] = test system: ACHN
[7] = test system: DLD-1
[8] = test system: SK-MEL-28
[9] = test system: UO-31
[10] = test system: SF-268
[11] = test system: HCT-116
[12] = test system: SF-539
[13] = test system: KM-20L2
[14] = test system: SN12C
[15] = test system: OVCAR-4
[16] = test system: SW-620
[17] = test system: SNB-75
[18] = test system: UACC-62
[19] = test system: UACC-257
[20] = test system: LOX IMVI

Measured: GI50

COc1cc2cc[n+]3c(C)c4cc(OC)c(OC)cc4c([O-])c3c2cc1OC
inactive: [1] > 100 µM | [2] 36.8 µM | [3] > 100 µM | [4] 33.1 µM | [5] > 100 µM | [6] > 100 µM | [7] > 100 µM | [8] 64.3 µM | [9] > 100 µM | [10] 36.3 µM | [11] 89.7 µM | [12] 36.9 µM | [13] 53.2 µM | [14] 32.7 µM | [15] 85.7 µM | [16] 41.9 µM | [17] 33 µM | [18] > 100 µM | [19] 30.8 µM

C[C@@H]1C[C@]2(C[C@@H](C)[C@H]3C(C[C@@]4(C)CCC[C@@H]5C6=C[C@H](CCC34C)OC6=CC(=O)OC5(C)C)O2)OC1=O (some centres not stated)
inactive: [1] > 51.5 µM | [2] > 51.5 µM | [3] > 51.5 µM | [5] 43.1 µM | [7] > 51.5 µM | [9] > 51.5 µM | [12] > 51.5 µM | [13] > 51.5 µM | [14] > 51.5 µM | [15] > 51.5 µM | [16] > 51.5 µM | [17] 13.1 µM | [18] > 51.5 µM | [20] > 51.5 µM | [19] > 51.5 µM

CCOC(=O)c1ccc(N2C(=O)/C(=C/c3ccc(N(CCC#N)CCC#N)cc3)N=C2c2cc([N+](=O)[O-])ccc2Cl)cc1
inactive: [1] > 100 µM | [2] > 100 µM | [3] > 100 µM | [4] > 100 µM | [5] > 100 µM | [6] > 100 µM | [7] > 100 µM | [8] > 100 µM | [9] > 100 µM | [10] > 100 µM | [11] > 100 µM | [12] > 100 µM | [13] > 100 µM | [14] > 100 µM | [15] > 100 µM | [16] > 100 µM | [18] 93.3 µM | [20] > 100 µM

O=C1C(CO)=C[C@H](O)[C@H]2O[C@@H]12
inactive: [1] 84.9 µM | [2] 202 µM | [3] 318 µM | [4] 194 µM | [5] 283 µM | [7] 113 µM | [8] 136 µM | [9] 267 µM | [10] 125 µM | [11] 104 µM | [12] 242 µM | [13] 337 µM | [14] 128 µM | [15] 130 µM | [16] 126 µM | [17] 335 µM | [18] 113 µM | [20] 136 µM | [19] 158 µM

CC1=NN(C(=O)c2ccc(C)cc2)C(=O)C1/N=N/c1ccccc1C(=O)O (configuration not stated)
inactive: [1] > 92.3 µM | [2] > 100 µM | [3] > 100 µM | [4] > 100 µM | [5] > 79.8 µM | [7] > 100 µM | [8] > 100 µM | [9] > 100 µM | [10] > 100 µM | [11] > 100 µM | [12] > 100 µM | [13] > 100 µM | [14] > 100 µM | [15] > 100 µM | [16] > 100 µM | [17] > 37.7 µM | [18] > 100 µM | [20] > 100 µM | [19] > 100 µM

CSc1cc(=O)n2c3ccccc3c3ccnc1c32
inactive: [1] > 65.2 µM | [2] 43.4 µM | [3] > 100 µM | [4] 14.2 µM | [5] 65.3 µM | [7] 49.7 µM | [8] > 100 µM | [9] 45.6 µM | [10] > 49.9 µM | [11] > 100 µM | [12] > 50 µM | [13] > 61.8 µM | [14] > 100 µM | [15] > 100 µM | [16] > 100 µM | [17] > 69.3 µM | [18] 41.4 µM | [20] > 100 µM | [19] > 54.5 µM

CCCCCCCCCCCCCCCc1ccc(OCC(O)CO)cc1 (configuration not stated)
inactive: [1] 50.1 µM | [2] 34 µM | [3] 22.6 µM | [4] 25.7 µM | [5] 20.7 µM | [6] 65 µM | [7] 44.2 µM | [8] 25.6 µM | [9] > 100 µM | [10] 27.9 µM | [11] 17.1 µM | [12] 49.7 µM | [13] 31.6 µM | [14] 18 µM | [15] 16.3 µM | [16] 22.3 µM | [17] 27 µM | [18] 23.9 µM | [20] 18.2 µM | [19] 38.8 µM

OCC(O)COc1ccc(Br)cc1 (configuration not stated)
inactive: [1] > 100 µM | [2] > 100 µM | [3] 50.7 µM | [4] > 100 µM | [5] > 100 µM | [6] > 100 µM | [7] > 100 µM | [8] > 100 µM | [9] > 100 µM | [10] > 100 µM | [11] > 100 µM | [12] > 100 µM | [13] > 100 µM | [14] 60.3 µM | [15] > 100 µM | [16] > 100 µM | [17] > 100 µM | [18] > 100 µM | [20] > 100 µM | [19] > 100 µM

COc1ccc(OC)c(/C=C/C(=O)C(C)(C)C)c1
inactive: [1] 25 µM | [2] 15 µM | [3] 29.4 µM | [4] 17.4 µM | [5] 18.7 µM | [6] 19.9 µM | [7] 19.9 µM | [8] 17.2 µM | [10] > 10 µM | [11] 17.9 µM | [12] 19.8 µM | [13] 23.6 µM | [14] 21 µM | [15] 22.6 µM | [16] 14.5 µM | [17] 26 µM | [18] 9.55 µM | [20] 21.1 µM
